Assay [1] concerns HT-1080. Nature of the assay: Cytotoxicity against human HT-1080 cells assessed as reduction in cell viability at 50 uM measured for 48 hrs by CCK-8 assay. In kind it is functional, cell-based. For orientation: Tetrazolium dyes change colour on reduction, which living cells bring about.
Assay [2] has as its system CCRF-CEM. Put plainly: Induction of necrosis in H2O2-induced human CCRF-CEM cells at 10 uM pretreated for 0.5 hrs followed by H2O2 stimulation by Cell-titer-glo assay. In kind it is functional, cell-based.
Assay [3] concerns CCRF-CEM. Nature of the assay: Anti-necroptosis activity against TNFalpha-induced human CCRF-CEM cells assessed as cell viability at 10 uM pretreated for 0.5 hrs followed by TNFalpha stimulation by Cell-titer-glo assay. It is filed as functional, cell-based.
A short description of assay [4]: Antioxidant activity assessed as DPPH radical scavenging activity at 10 uM measured for 30 mins relative to control. In kind it is functional. Background: Loss of DPPH colour is used to gauge radical scavenging.
The subject of assay [5] is HT-1080. Nature of the assay: Anti-ferroptotic activity against erastin-induced ferroptosis in human HT-1080 cells assessed as cell viability at 10 uM pretreated for 0.5 hrs followed by erastin stimulation by Cell-titer-glo assay. In kind it is functional. Particulars: read-out: Activity.
In assay [6] the test system is HT-1080. Put plainly: Anti-ferroptotic activity against erastin/RSL3-induced ferroptosis in human HT-1080 cells assessed as cell viability at 1 uM pretreated for 0.5 hrs followed by erastin/RSL3 stimulation by Cell-titer-glo assay. It is filed as functional, cell-based.
The test system of assay [7] is HT-1080. Put plainly: Anti-ferroptotic activity against RSL3-induced ferroptosis in human HT-1080 cells assessed as cell viability pretreated for 0.5 hrs followed by RSL3 stimulation by Cell-titer-glo assay. It is filed as functional, cell-based.
The subject of assay [8] is CCRF-CEM. Nature of the assay: Anti-ferroptotic activity against RSL3-induced ferroptosis in human CCRF-CEM cells assessed as cell viability at 10 uM pretreated for 0.5 hrs followed by RSL3 stimulation by Cell-titer-glo assay. It is filed as functional, cell-based.
The test system of assay [9] is HT-1080. Put plainly: Anti-ferroptotic activity against erastin/RSL3-induced ferroptosis in human HT-1080 cells assessed as cell viability at 10 uM pretreated for 0.5 hrs followed by erastin/RSL3 stimulation by Cell-titer-glo assay. In kind it is functional, cell-based.
For assay [10], the system named is HT-1080. Nature of the assay: Anti-ferroptotic activity against erastin-induced ferroptosis in human HT-1080 cells assessed as cell viability pretreated for 0.5 hrs followed by erastin stimulation by Cell-titer-glo assay. It is filed as functional, cell-based.

The record followed here is ChEMBL document CHEMBL5257050, “Structure Revisions of Phenolic Bisabolane Sesquiterpenes and a Ferroptosis Inhibitor from the Marine-Derived Fungus Aspergillus versicolor YPH93” (J Nat Prod, 2023).

Active and inactive are the calls of the source. No cut-off for these calls is given here.

As to `CC(=O)OCC(C)(O)CCCC(C)(O)c1ccc(C(=O)O)cc1O` (stereo not given), the result with HT-1080 [1], in the assay with CCRF-CEM [2] and with CCRF-CEM [3] was inactive. Also, the outcome in [4] was Active.
Regarding `C/C(=C/CCC(C)(C)O)c1ccc(C(=O)O)cc1O`, the result in the assay with HT-1080 [1], in the assay with CCRF-CEM [2] and with CCRF-CEM [3] was inactive. In [4], the outcome was Active.
Regarding `CC(=O)OC[C@@]1(C)CCC[C@](C)(c2ccc(C(=O)O)cc2O)O1` (relative stereo), the outcome in the assay on HT-1080 [1], in the assay with CCRF-CEM [2] and in the assay with CCRF-CEM [3] was inactive. Also, the result in assay [4] was Active.
Consider `C[C@]1(c2ccc(C(=O)O)cc2O)CC[C@H](O)[C@](C)(CO)O1` (relative stereo), for which the outcome with HT-1080 [1], with CCRF-CEM [2] and in the assay on CCRF-CEM [3] was inactive. The result in assay [4] was Active.
In the case of `CC1(C)O[C@@](C)(c2ccc(C(=O)O)cc2O)[C@H](O)C[C@@H]1O` (relative stereo), the result with HT-1080 [1], in the assay on CCRF-CEM [2] and in the assay with CCRF-CEM [3] was inactive. The result in [4] was Active.
As for `C[C@]1(CO)CCC[C@](C)(c2ccc(C(=O)O)cc2O)O1`, the result in the assay on HT-1080 [1], with CCRF-CEM [2] and with CCRF-CEM [3] was inactive. In addition, the outcome in assay [4] was Active.
With `CC(CCCC(C)(O)c1ccc(C(=O)O)cc1O)C(=O)O` (stereo not given), the outcome in the assay on HT-1080 [1], with CCRF-CEM [2] and in the assay with CCRF-CEM [3] was inactive. The outcome in [4] was Active.
For `CC1(C)O[C@@](C)(c2ccc(C(=O)O)cc2O)C[C@H](O)[C@H]1O` (relative stereo), the outcome in the assay with HT-1080 [1], with CCRF-CEM [2] and with CCRF-CEM [3] was inactive. Also, in assay [4], the outcome was Active.
For the molecule `Cc1cccc(O)c1-c1cc(O)c(C)c(=O)o1`, the outcome with HT-1080 [1], in the assay on CCRF-CEM [2] and in the assay with CCRF-CEM [3] was inactive. Besides, the outcome in assay [4] was Active.
Consider `C[C@@]1(CO)CCC[C@](C)(c2ccc(C(=O)O)cc2O)O1` (relative stereo), for which the outcome in the assay with HT-1080 [1], in the assay on CCRF-CEM [2] and in the assay on CCRF-CEM [3] was inactive. Further, the result in assay [4] was Active.
Regarding `CC1(c2ccc(C(=O)O)cc2O)CCC(=O)O1` (stereo not given), the outcome in the assay on HT-1080 [1], with CCRF-CEM [2] and with CCRF-CEM [3] was inactive. Besides, the outcome in assay [4] was Active.
For `CC1(C)O[C@@](C)(c2ccc(C(=O)O)cc2O)C[C@H](O)[C@@H]1O` (relative stereo), the result in the assay with HT-1080 [1], with CCRF-CEM [2] and with CCRF-CEM [3] was inactive. Also, the outcome in assay [4] was Active.
For `CC(=O)OC[C@@]1(C)CCC[C@@](C)(c2ccc(C(=O)O)cc2O)O1`, the result in the assay on HT-1080 [1], in the assay on CCRF-CEM [2] and in the assay with CCRF-CEM [3] was inactive. Also, in the assay on HT-1080 [5], the viability at 10 µM was determined as 50%. Further, the outcome in assay [4] was Active.
In the case of `CC1(C)CCC[C@](C)(c2ccc(C(=O)O)cc2O)O1`, the result in the assay on HT-1080 [1], in the assay with CCRF-CEM [2] and in the assay on CCRF-CEM [3] was inactive. In addition, the result in [4] was Active.
Turning to `CC(C)(O)CCCC(C)(O)c1ccc(C(=O)O)cc1O` (stereo not given), the outcome in the assay with HT-1080 [1], in the assay with CCRF-CEM [2] and in the assay on CCRF-CEM [3] was inactive. Moreover, the outcome in assay [4] was Active.
Regarding `CCOC(=O)c1ccc(NC2CCCCC2)c(N)c1`, the result (in the assay with HT-1080 [6]; in assay [4]) was Active.
Turning to `C/C(=C\CCC(C)(O)CO)c1ccc(C(=O)O)cc1O` (stereo not given), the values for the EC50 in the assay with HT-1080 [7] and in the assay on HT-1080 [10] were 2.1 µM and 3.4 µM, respectively. Also, the result (in the assay on CCRF-CEM [8]; in the assay with HT-1080 [9]; in assay [4]) was Active. The outcome in the assay on HT-1080 [1], in the assay on CCRF-CEM [2] and in the assay with CCRF-CEM [3] was inactive.
Consider `CC(O)(CO)CCCC(C)(O)c1ccc(C(=O)O)cc1O` (stereo not given), for which the outcome in the assay on HT-1080 [1], with CCRF-CEM [2] and with CCRF-CEM [3] was inactive. Also, in assay [4], the outcome was Active.

The EC50 is the concentration at which the effect is half-maximal.
